# Assay results reported in patent publication US8785457B2 (Cellzome Limited, priority 2009, dated 2014).
# pIC50: −log10 of the molar value. Like-named read-outs stand apart in the source and are kept apart here.
# Target: T1, PI3K delta (PI3 Kd) (Homo sapiens, UniProt O00329)
# T1 construct: endogenous in cells; host or cells: Jurkat, clone E6-1 (ATCC TIB-152) cell lysate
# Experiment: kinobeads assay, PI3K delta
# Assay type: binding
# Conditions: kinobeads assay, read-out: Inhibition values (IC50) PI3Kd
# Outline: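 Competitive binding in Jurkat cell lysate (5 mg/ml total protein): test compounds at various concentrations competed with beads bearing immobilized phenylmorpholin-chromen ligand. Bead-bound kinases were eluted and quantified by antibody dot blot with infrared detection; IC50 values came from dose-response curves.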
# T1 sequence (O00329 whole entry): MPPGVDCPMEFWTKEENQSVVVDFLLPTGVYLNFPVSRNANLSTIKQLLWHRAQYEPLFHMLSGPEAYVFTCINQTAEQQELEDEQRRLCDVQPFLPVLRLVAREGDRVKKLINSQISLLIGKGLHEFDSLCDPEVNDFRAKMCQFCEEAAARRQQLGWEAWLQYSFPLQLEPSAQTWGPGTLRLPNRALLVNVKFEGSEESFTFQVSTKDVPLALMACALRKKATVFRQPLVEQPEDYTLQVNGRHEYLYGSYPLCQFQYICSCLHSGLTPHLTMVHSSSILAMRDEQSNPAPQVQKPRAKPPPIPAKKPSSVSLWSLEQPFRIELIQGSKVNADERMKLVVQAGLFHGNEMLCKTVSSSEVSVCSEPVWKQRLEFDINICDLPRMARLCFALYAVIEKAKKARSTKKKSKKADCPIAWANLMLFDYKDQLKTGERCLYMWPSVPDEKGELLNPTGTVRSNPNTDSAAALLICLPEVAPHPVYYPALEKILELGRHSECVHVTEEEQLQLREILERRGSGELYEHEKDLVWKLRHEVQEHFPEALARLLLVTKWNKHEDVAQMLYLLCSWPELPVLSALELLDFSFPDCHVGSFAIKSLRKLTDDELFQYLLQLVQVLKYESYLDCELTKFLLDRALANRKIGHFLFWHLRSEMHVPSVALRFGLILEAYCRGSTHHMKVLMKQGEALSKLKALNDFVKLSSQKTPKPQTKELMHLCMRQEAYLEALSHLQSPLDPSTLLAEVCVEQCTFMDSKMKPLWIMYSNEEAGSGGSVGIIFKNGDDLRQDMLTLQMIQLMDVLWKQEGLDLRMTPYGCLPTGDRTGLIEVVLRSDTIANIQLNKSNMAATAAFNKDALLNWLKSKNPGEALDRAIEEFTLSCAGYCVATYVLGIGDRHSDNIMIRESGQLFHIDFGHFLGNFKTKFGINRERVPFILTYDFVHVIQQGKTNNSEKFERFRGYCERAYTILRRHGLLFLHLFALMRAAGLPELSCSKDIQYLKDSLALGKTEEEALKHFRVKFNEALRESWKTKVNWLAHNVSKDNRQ
# T1 sequence (P27986 whole entry partner): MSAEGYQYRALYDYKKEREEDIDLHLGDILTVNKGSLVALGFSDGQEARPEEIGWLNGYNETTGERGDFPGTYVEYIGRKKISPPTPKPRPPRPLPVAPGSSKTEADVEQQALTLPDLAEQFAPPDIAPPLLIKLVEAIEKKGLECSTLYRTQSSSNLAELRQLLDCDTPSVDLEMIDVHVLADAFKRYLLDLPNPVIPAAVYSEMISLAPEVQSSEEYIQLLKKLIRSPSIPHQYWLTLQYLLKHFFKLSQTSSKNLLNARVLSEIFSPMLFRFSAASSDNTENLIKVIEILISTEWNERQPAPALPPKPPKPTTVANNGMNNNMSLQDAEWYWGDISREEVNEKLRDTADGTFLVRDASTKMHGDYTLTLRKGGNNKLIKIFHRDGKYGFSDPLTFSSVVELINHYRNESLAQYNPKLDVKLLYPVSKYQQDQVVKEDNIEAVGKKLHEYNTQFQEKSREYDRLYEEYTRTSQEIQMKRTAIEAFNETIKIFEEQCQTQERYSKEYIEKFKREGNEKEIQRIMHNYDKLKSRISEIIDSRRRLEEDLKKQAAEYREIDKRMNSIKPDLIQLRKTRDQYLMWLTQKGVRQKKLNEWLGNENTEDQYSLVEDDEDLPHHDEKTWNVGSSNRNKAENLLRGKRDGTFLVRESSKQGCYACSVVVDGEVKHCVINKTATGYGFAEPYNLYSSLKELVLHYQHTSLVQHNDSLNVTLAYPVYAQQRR
SMILES,pIC50 (Table 4),pIC50 (Table 6)
"CCNC(=O)Nc1ccc(-c2nc3c(c(N4CCOC[C@@H]4C)n2)CN(C=O)C3)cc1 [Example 8, (S)-1-ethyl-3-(4-(6-formyl-4-(3-methylmorpholino)-6,7-dihydro-5H-pyrrolo[3,4-d]pyrimidin-2-yl)phenyl)urea]",< 5.00,< 5.00
"CCNC(=O)Nc1ccc(-c2nc3c(c(N4CCOC[C@@H]4C)n2)CNCC3)cc1 [Example 12, (S)-1-ethyl-3-(4-(4-(3-methylmorpholino)-5,6,7,8-tetrahydropyrido[4,3-d]pyrimidin-2-yl)phenyl)urea]",< 5.00,< 5.00
"CCNC(=O)Nc1ccc(-c2nc3c(c(N4CCOC[C@@H]4C)n2)CCNC3)cc1 [Example 13, (S)-1-ethyl-3-(4-(4-(3-methylmorpholino)-5,6,7,8-tetrahydropyrido[3,4-d]pyrimidin-2yl)phenyl)urea]",< 5.00,< 5.00
"CNC(=O)Nc1ccc(-c2nc3c(c(N4CCOC[C@@H]4C)n2)CCNC3)cc1 [Example 16, (S)-1-methyl-3-(4-(4-(3-methylmorpholino)-5,6,7,8-tetrahydropyrido[3,4-d]pyrimidin-2-yl)phenyl)urea]",< 5.00,< 5.00
"CCNC(=O)Nc1ccc(-c2nc3c(c(N4CCOC[C@@H]4C)n2)CN(C(=O)C(C)(C)C)C3)cc1 [Example 22, (S)-1-ethyl-3-(4-(4-(3-methylmorpholino)-6-pivaloyl-6,7-dihydro-5H-pyrrolo[3,4-d]pyrimidin-2-yl)phenyl)urea]",< 5.00,< 5.00
"CCNC(=O)Nc1ccc(-c2nc3c(c(N4CCOC[C@@H]4C)n2)CN(C)C3)cc1 [Example 26, (S)-1-ethyl-3-(4-(6-methyl-4-(3-methylmorpholino)-6,7-dihydro-5H-pyrrolo[3,4-d]pyrimidin-2-yl)phenyl)urea]",< 5.00,< 5.00
"CCNC(=O)Nc1ccc(-c2nc3c(c(N4CCOC[C@@H]4C)n2)CN(S(C)(=O)=O)C3)cc1 [Example 32, (S)-1-ethyl-3-(4-(4-(3-methylmorpholino)-6-(methylsulfonyl)-6,7-dihydro-5H-pyrrolo[3,4-d]pyrimidin-2-yl)phenyl)urea]",< 5.00,< 5.00
"CCNC(=O)Nc1ccc(-c2nc3c(c(N4CCOC[C@@H]4C)n2)CN(CC)C3)cc1 [Example 39, (S)-1-ethyl-3-(4-(6-ethyl-4-(3-methylmorpholino)-6,7-dihydro-5H-pyrrolo[3,4-d]pyrimidin-2-yl)phenyl)urea]",< 5.00,< 5.00
"C[C@H]1COCCN1c1nc(-c2ccc(NC(N)=O)cc2)nc2c1CN(CC1CC1)C2 [Example 48, (S)-1-(4-(6-(cyclopropylmethyl)-4-(3-methylmorpholino)-6,7-dihydro-5H-pyrrolo[3,4-d]pyrimidin-2-yl)phenyl)urea]",5.00 to 6.00,5.00 to 6.00
"CCCNC(=O)Nc1ccc(-c2nc3c(c(N4CCOC[C@@H]4C)n2)CN(CC2CC2)C3)cc1 [Example 49, (S)-1-(4-(6-(cyclopropylmethyl)-4-(3-methylmorpholino)-6,7-dihydro-5H-pyrrolo[3,4-d]pyrimidin-2-yl)phenyl)-3-propylurea]",< 5.00,< 5.00
"CC(C)NC(=O)Nc1ccc(-c2nc3c(c(N4CCOC[C@@H]4C)n2)CN(CC2CC2)C3)cc1 [Example 50, (S)-1-(4-(6-(cyclopropylmethyl)-4-(3-methylmorpholino)-6,7-dihydro-5H-pyrrolo[3,4-d]pyrimidin-2-yl)phenyl)-3-isopropylurea]",< 5.00,< 5.00

# Second part, the compound after the results:
pIC50 (Table 4),pIC50 (Table 6),SMILES
< 5.00,< 5.00,"C[C@H]1COCCN1c1nc(-c2ccc(NC(=O)NC3CC3)cc2)nc2c1CNCC2 [Example 11, (S)-1-cyclopropyl-3-(4-(4-(3-methylmorpholino)-5,6,7,8-tetrahydropyrido[4,3-d]pyrimidin-2-yl)phenyl)urea]"
< 5.00,< 5.00,"C[C@H]1COCCN1c1nc(-c2ccc(NC(=O)NC3CC3)cc2)nc2c1CCNC2 [Example 15, (S)-1-cyclopropyl-3-(4-(4-(3-methylmorpholino)-5,6,7,8-tetrahydropyrido[3,4-d]pyrimidin-2-yl)phenyl)urea]"
< 5.00,< 5.00,"C[C@H]1COCCN1c1nc(-c2ccc(NC(=O)NC3CC3)cc2)nc2c1CN(C(=O)C1CC1)C2 [Example 17, (S)-1-(4-(6-(cyclopropanecarbonyl)-4-(3-methylmorpholino)-6,7-dihydro-5H-pyrrolo[3,4-d]pyrimidin-2-yl)phenyl)-3-cyclopropylurea]"
5.00 to 6.00,5.00 to 6.00,"CCNC(=O)Nc1ccc(-c2nc3c(c(N4CCOC[C@@H]4C)n2)CN(C(C)=O)C3)cc1 [Example 18, (S)-1-(4-(6-acetyl-4-(3-methylmorpholino)-6,7-dihydro-5H-pyrrolo[3,4-d]pyrimidin-2-yl)phenyl)-3-ethylurea]"
< 5.00,< 5.00,"CC(=O)N1Cc2nc(-c3ccc(NC(=O)NC4CC4)cc3)nc(N3CCOC[C@@H]3C)c2C1 [Example 20, (S)-1-(4-(6-acetyl-4-(3-methylmorpholino)-6,7-dihydro-5H-pyrrolo[3,4-d]pyrimidin-2-yl)phenyl)-3-cyclopropylurea]"
< 5.00,< 5.00,C[C@H]1COCCN1c1nc(-c2ccc(NC(=O)NC3CC3)cc2)nc2c1CN(CC1CC1)C2 [Example 30]
< 5.00,< 5.00,"CCNC(=O)N1Cc2nc(-c3ccc(NC(=O)NC4CC4)cc3)nc(N3CCOC[C@@H]3C)c2C1 [Example 33, (S)-2-(4-(3-cyclopropylureido)phenyl)-N-ethyl-4-(3-methylmorpholino)-5H-pyrrolo[3,4-d]pyrimidine-6(7H)-carboxamide]"
< 5.00,< 5.00,"CCN1Cc2nc(-c3ccc(NC(=O)NC4CC4)cc3)nc(N3CCOC[C@@H]3C)c2C1 [Example 36, (S)-1-cyclopropyl-3-(4-(6-ethyl-4-(3-methylmorpholino)-6,7-dihydro-5H-pyrrolo[3,4-d]pyrimidin-2-yl)phenyl)urea]"
< 5.00,< 5.00,"C[C@H]1COCCN1c1nc(-c2ccc(NC(=O)NC3CC3)cc2)nc2c1CN(C)C2 [Example 38, (S)-1-cyclopropyl-3-(4-(6-methyl-4-(3-methylmorpholino)-6,7-dihydro-5H-pyrrolo[3,4-d]pyrimidin-2-yl)phenyl)urea]"
< 5.00,< 5.00,"CC(C)C(=O)N1Cc2nc(-c3ccc(NC(=O)NC4CC4)cc3)nc(N3CCOC[C@@H]3C)c2C1 [Example 44, (S)-1-cyclopropyl-3-(4-(6-isobutyryl-4-(3-methylmorpholino)-6,7-dihydro-5H-pyrrolo[3,4-d]pyrimidin-2-yl)phenyl)urea]"
< 5.00,< 5.00,"CC(C)N1Cc2nc(-c3ccc(NC(=O)NC4CC4)cc3)nc(N3CCOC[C@@H]3C)c2C1 [Example 46, (S)-1-cyclopropyl-3-(4-(6-isopropyl-4-(3-methylmorpholino)-6,7-dihydro-5H-pyrrolo[3,4-d]pyrimidin-2-yl)phenyl)urea]"
5.00 to 6.00,5.00 to 6.00,"CNC(=O)Nc1ccc(-c2nc3c(c(N4CCOC[C@@H]4C)n2)CN(CC2CC2)C3)cc1 [Example 47, (S)-1-(4-(6-(cyclopropylmethyl)-4-(3-methylmorpholino)-6,7-dihydro-5H-pyrrolo[3,4-d]pyrimidin-2-yl)phenyl)-3-methylurea]"
